{
  "source": "patent US12521415B2",
  "about": "“Accelerating repair of mucosal injury using gold(III) compounds” (University of Kentucky Research Foundation, priority 2020, dated 2026)",
  "key": {"[1]": {"system": "mouse liver mitochondria (complex I)", "assay": "AuPhos-induced OCR in mouse liver mitochondria", "assay_type": "biochemical", "conditions": "complex I-driven, substrates pyruvate and succinate", "text": "(§1) FIGS. 8A-8J present properties of AuPhos. FIG. 8A includes a chemical structure of AuPhos. FIG. 8B includes extrapolated AuPhos-induced OCR (complex I) in liver mitochondria. […] FIG. 8E provides weight change in AuPhos-treated mice over time. FIG. 8F presents stability of AuPhos in PBS and DMEM. FIG. 8G presents stability of AuPhos in PBS and DMEM. FIG. 8H includes an AuPhos-induced Heat map of DEG (left Panel), obtained using log 2(Fold Change) and p-Value <0.00001 thresholds in MDA-MB-231(107) cells (n=2), and the top six hits of KEGG analysis (right panel). FIG. 8I presents biodistribution and pharmacokinetics of AuPhos in different tissues; Colon, Small bowel, Lung, Kidney, Spleen, Liver, Heart and Blood after single dose (oral, 25 mg/kg) administration of AuPhos at 6 h, 12 h and 24 h. FIG. 8J presents biodistribution and pharmacokinetics of AuPhos in different tissues stool after single dose (oral, 25 mg/kg) administration of AuPhos at 6 h, 12 h and 24 h.\nOxPHOS will be then be stimulated by subsequent addition of ADP followed by additional CI substrate glutamate (5 mM). […] Residual non-mitochondrial oxygen consumption will be determined by addition of complex III inhibitor antimycin-A (1 ug/ml). Oxygen consumption rate (OCR) of isolated mitochondria will also be evaluated using Oxygraph-2K or high-throughput Seahorse XFe24 Extracellular Flux Analyzer (Agilent Technologies). […]"}, "[2]": {"system": "breast cancer (MDA-MB-231)", "assay": "Mitochondrial uptake of AuPhos by gold content (graphite furnace atomic absorption spectroscopy) in MDA-MB-231", "assay_type": "cell-based", "conditions": "cancerous epithelial cells (MDA-MB-231)", "text": "as §1\nChanging the geometry and stabilizing ligands of gold compounds, such as the use of bidentate frameworks, promote different mitochondrial effects."}, "[3]": {"assay": "Toxicity (weight change) in AuPhos-treated mice over time", "assay_type": "in vivo, mouse", "text": "as §1\nThis observation was mitochondrial complex I-driven when different substrates, i.e. pyruvate and succinate, were used to measure the OCR. Transcriptomics was used to study global changes in mRNA in response to a 12 h exposure of AuPhos to MDA-MB-231 cells (FIG. 8H)."}, "[4]": {"system": "colonic NCM460 cells", "assay": "MitoSOX Red assay of mtROS (superoxide) production", "assay_type": "cell-based, human", "protocol": "(§2) FIG. 11A includes representative images showing AuPhos-induced (200 nM) mtROS (superoxide) production using MitoSOX Red assay.\nGiven the in vivo data in FIG. 10, it was determined if AuPhos increases ROS levels within mitochondria (mtROS). To examine this possibility, colonic NCM460 cells were cultured, treated with a positive control (Rotenone), AuPhos (200 nM) or AuPhos with PEG-SOD (negative control) and analyzed with MitoSOX Red (an indicator of mitochondrial superoxide). […] Studies in FIGS. 11C and 11D used human colonoids isolated from normal patients to examine effects of AuPhos on hydrogen peroxide (H2O2) production from normal and low-dose TNF-stimulated colonoids."}, "[5]": {"system": "human colonoids", "assay": "AmplexRed H2O2 production in human colonoid monolayer cultures", "assay_type": "cell-based", "protocol": "as §2\nMurine IEC will be isolated as above. Human biopsies will be incubated for 15 min at RT in CMF-HBSS/10 mM DTT with following incubation at 4° C. CMF-HBSS/8 mM EDTA for 75 min. Epithelial cells will be dislodged by vigorous shaking. Large pieces of tissue will be discarded, epithelial cells harvested by centrifugation at 40 g/5 min and imbedded in Matrigel. Both human and mouse colonoids will be grown in WRN medium (conditional medium from L-WRN cells (ATCC CRL-3276)) supplemented with 20% FBS, 500 nM A 83-01, 10 μM SB 202190, 10 μM Y27632, 2.5 μM CHIR99021, 100 μg/ml piromicin and 2.5 μg/ml amphotericin. Colonoids will be passaged every 5-7 days. NCM460 cells derived from normal human colon mucosa were purchased from INCELL Corporation, and will be cultured in M3:10 medium with 30% conditioned medium from previous culture under standard incubation conditions.\nGiven the in vivo data in FIG. 10, it was determined if AuPhos increases ROS levels within mitochondria (mtROS). To examine this possibility, colonic NCM460 cells were cultured, treated with a positive control (Rotenone), AuPhos (200 nM) or AuPhos with PEG-SOD (negative control) and analyzed with MitoSOX Red (an indicator of mitochondrial superoxide). […]"}, "[6]": {"system": "serum IL-6", "assay": "Anti-CD3 mAb-induced serum IL-6 in control and AuPhos-treated mice", "assay_type": "in vivo, mouse", "conditions": "25 mg/kg i.g. every 3d x2; anti-CD3 mAb injected", "protocol": "FIG. 12A RT-qPCR analysis of cytokines and chemokine genes in AuPhos vs. controls at 9 and 13 days after DSS initiation. FIG. 12B RT-qPCR analysis of cytokines and chemokine genes in AuPhos vs. controls at 9 and 13 days after DSS initiation. FIG. 12C Quantitative RT-PCR analysis of inflammasome markers in D13 DSS mice. Statistical significance was determined using multiple t-test with Holm-Sidak's multiple method. FIG. 12D Serum IL-6 in AuPhos treated (n=4) and control mice, with or without anti-CD3 antibody. ★<0.05; ★★<0.01.\nFindings in FIG. 9A-9D indicate that AuPhos attenuates tissue inflammation and enhances mucosal healing in DSS colitis mice. To interrogate the effects of AuPhos on Th1 and Treg cytokine production as well as chemokine and inflammasome mediators, mRNA from mice at time points indicated (as in FIG. 9A-9D). […] To test the question of whether AuPhos affected leukocytes directly, control and AuPhos-treated (25 mg/kg i.g. dosed every 3d×2) were injected with anti-CD3 mAb (antiTCR mAb). It is known that CD3 mAb induces a cytokine storm in the periphery and intestine."}},
  "note": "Entries after “also recorded” stand apart in the source; their conditions may differ.",
  "data": [
    {"molecule": "[Cl][Au]1([c]2ccccc2Cc2ccccn2)[P](c2ccccc2)(c2ccccc2)c2ccccc2[P]1(c1ccccc1)c1ccccc1", "note": "[AuPhos]", "values": [
      {"measurement": "mitochondrial respiration (OCR)", "setting": "[1]", "value": "directly and rapidly enhances mitochondrial respiration; also recorded: significant increase in mitochondrial respiration induced by AuPhos in a dose-dependent manner"},
      {"measurement": "mitochondrial localization (gold content)", "setting": "[2]", "value": "localizes in the mitochondria"},
      {"measurement": "liver toxicity", "setting": "[3]; mice, data not shown", "value": "not observed"},
      {"measurement": "toxicity in mice", "setting": "[3]; over 20 days", "value": "no toxicity"},
      {"measurement": "AuPhos-induced mtROS production with PEG-SOD", "setting": "[4]; AuPhos 200 nM with PEG-SOD (negative control), NCM460", "value": "specifically inhibited with PEG-SOD"},
      {"measurement": "rise in mtROS production", "setting": "[4]; AuPhos 200 nM, NCM460 cells, MitoSOX Red", "value": 45, "unit": "%"},
      {"measurement": "hydrogen peroxide (H2O2) production", "setting": "[5]; AuPhos 200 nM, normal and low-dose TNF-stimulated human colonoids, AmplexRed", "value": "increased in normal and TNF-treated cells; also recorded: Increases H2O2 production"},
      {"measurement": "AuPhos-induced ROS (H2O2) with PEG catalase", "setting": "[5]; human colonoids", "value": "specifically digested with PEG catalase"},
      {"measurement": "anti-CD3 induced increases in serum IL-6", "setting": "[6]", "value": "did not affect"}
    ]}
  ]
}
